Experimental data as given in patent publication EP0043274A2, “Antithrombotic treatment” (priority 1980, dated 1982).

How the values were obtained:
human plasma = assay: Blood coagulation evaluation by standard procedures (Biggs), overall result; type: biochemical; details: 5 mg/ml
Method: The effect of U.S.P. grade sodium bisulfite on blood coagulation factors is evaluated by standard procedures (Biggs) and the results are shown in Table III below.
When this procedure is repeated using human plasma,
References for PT, PTT, and assays in vitro of all the coagulation factors can be found in a standard textbook, entitled "Human Blod Coagulation, Haemostatis and Thrombosis", edited by Rosemary Biggs, published by Blackwell Scientific Publications, Oxford, England (2nd edition), pages 670-705, 1976.

[1] = Human use, oral drops with meals (case histories); type: in vivo
Text: To evaluate the effect of sodium bisulfite in human use (this agent being known to be safe for human consumption), certain patients received this agent. The case history and observations are summarized individually below.
In each case, each patient is provided with such a bottle of Solution D, unless otherwise noted, and is instructed to dose himself (or herself, as the case may be) from the bottle so provided at the rate of seven drops to be taken orally with each of his (her) three daily meals. When the contents of one such bottle is thus so gradually consumed by an individual patient, another is provided to him (her).

## Sodium bisulfite
Human plasma
  coagulation of human plasma: completely disrupted
[1]; after about 5 years of medication, before between 200 and 220 mg %
  Case IV: blood cholesterol value: about 144 mg %
[1]; man, Solutions A, B, C, or D orally, up to 20 drops per meal, within 2-3 months
  Case IV: hypertension, arthritis, arrithmia, hemorrhoids, dispepsia, cyanotic fingers and toes, malaise, lassitude: all of the above identified conditions improved (except for diabetes)
